We go through 18 compounds from patent US5886016A, “Benzopyranopyrazolyl derivatives for the treatment of inflammation” (G.D. Searle & Co., priority 1997, dated 1999).

Assay [1] deals with hyperalgesic foot withdrawal (rat carrageenan). Put plainly: Rat Carrageenan-induced Analgesia Test. The format is in vivo, Male Sprague-Dawley rats. Particulars: @ 30 mg/kg body weight; oral; 3 hours after carrageenan. How it is done:
Rat Carrageenan-induced Analgesia Test
Male Sprague-Dawley rats were treated as previously described for the Carrageenan Foot Pad Edema test. Three hours after the injection of the carrageenan, the rats were placed in a special plexiglass container with a transparent floor having a high intensity lamp as a radiant heat source, positionable under the floor. After an initial twenty minute period, thermal stimulation was begun on either the injected foot or on the contralateral uninjected foot. A photoelectric cell turned off the lamp and timer when light was interrupted by paw withdrawal. The time until the rat withdraws its foot was then measured. The withdrawal latency in seconds was determined for the control and drug-treated groups, and percent inhibition of the hyperalgesic foot withdrawal determined.

The subject of assay [2] is carrageenan foot edema (rat paw). Put plainly: Rat Carrageenan Foot Pad Edema Test. The format is in vivo, Male Sprague-Dawley rats. The note with it: @ 30 mg/kg body weight; oral; 3 hours after carrageenan. How it is done: Rat Carrageenan Foot Pad Edema Test
Male Sprague-Dawley rats were selected in each group so that the average body weight was as close as possible. Rats were fasted with free access to water for over sixteen hours prior to the test. […] One hour later a subplantar injection of 0.1 mL of 1% solution of carrageenan/sterile 0.9% saline was administered and the volume of the injected foot was measured with a displacement plethysmometer connected to a pressure transducer with a digital indicator. Three hours after the injection of the carrageenan, the volume of the foot was again measured.
(The carrageenan paw model is a standard test of acute inflammation.)

Assay [3] has as its target T1, Human COX-1 (Homo sapiens, UniProt P23219).
T1 construct: A 2.0 kb fragment containing the coding region of either human or murine COX-1 or human or murine COX-2; made in house; host or cells: SF9 insect cells (recombinant baculovirus, pVL1393); CHAPS-solubilized membranes
Put plainly: Evaluation of COX-1 activity in vitro (recombinant enzyme, PGE2 ELISA). The format is biochemical. The note with it: 10 μM arachidonic acid; 10-20 minutes pre-incubation; pH 8.0. An excerpt:
Evaluation of COX-1 and COX-2 activity in vitro
(§1) a. Preparation of recombinant COX baculoviruses
(§2) A 2.0 kb fragment containing the coding region of either human or murine COX-1 or human or murine COX-2 was cloned into a BamH1 site of the baculovirus transfer vector pVL1393 (Invitrogen) to generate the baculovirus transfer vectors for COX-1 and COx-2 in a manner similar to the method of D. R. O'Reilly et al (Baculovirus Expression Vectors: A Laboratory Manual (1992)). Recombinant baculoviruses were isolated by transfecting 4 μg of baculovirus transfer vector DNA into SF9 insect cells (2>10e8) along with 200 ng of linearized baculovirus plasmid DNA by the calcium phosphate method. See M. D. Summers and G. E. Smith, A Manual of Methods for Baculovirus Vectors and Insect Cell Culture Procedures, Texas Agric. Exp. Station Bull. 1555 (1987). Recombinant viruses were purified by three rounds of plaque purification and high titer (10E7-10E8 pfu/ml) stocks of virus were prepared. For large scale production, SF9 insect cells were infected in 10 liter fermentors (0.5×10^6 /ml) with the recombinant baculovirus stock such that the multiplicity of infection was 0.1. After 72 hours the cells were centrifuged and the cell pellet homogenized in Tris/Sucrose (50 mM: 25%, pH 8.0) containing 1% 3-[(3-cholamidopropyl)dimethylammoniol]-1-propanesulfonate (CHAPS). The homogenate was centrifuged at 10,000×G for 30 minutes, and the resultant supernatant was stored at -80° C. before being assayed for Cox activity.
b. Assay for COX-1 and COX-2 activity:
(§3) COX activity was assayed as PGE2 formed/μg protein/time using an ELISA to detect the prostaglandin released. CHAPS-solubilized insect cell membranes containing the appropriate COX enzyme were incubated in a potassium phosphate buffer (50 mM, pH 8.0) containing epinephrine, phenol, and heme with the addition of arachidonic acid (10 μM). Compounds were pre-incubated with the enzyme for 10-20 minutes prior to the addition of arachidonic acid. Any reaction between the arachidonic acid and the enzyme was stopped after ten minutes at 37° C./room temperature by transferring 40 μl of reaction mix into 160 μl ELISA buffer and 25 μM indomethacin. The PGE2 formed was measured by standard ELISA technology (Cayman Chemical).
For orientation: An ELISA detects its analyte on a solid surface through an enzyme-linked reagent.

Assay [4] concerns the target T2, Human COX-2 (Homo sapiens, UniProt P35354).
T2 construct: A 2.0 kb fragment containing the coding region of either human or murine COX-1 or human or murine COX-2; made in house; host or cells: SF9 insect cells (recombinant baculovirus, pVL1393); CHAPS-solubilized membranes
T2 sequence (P35354 18-604): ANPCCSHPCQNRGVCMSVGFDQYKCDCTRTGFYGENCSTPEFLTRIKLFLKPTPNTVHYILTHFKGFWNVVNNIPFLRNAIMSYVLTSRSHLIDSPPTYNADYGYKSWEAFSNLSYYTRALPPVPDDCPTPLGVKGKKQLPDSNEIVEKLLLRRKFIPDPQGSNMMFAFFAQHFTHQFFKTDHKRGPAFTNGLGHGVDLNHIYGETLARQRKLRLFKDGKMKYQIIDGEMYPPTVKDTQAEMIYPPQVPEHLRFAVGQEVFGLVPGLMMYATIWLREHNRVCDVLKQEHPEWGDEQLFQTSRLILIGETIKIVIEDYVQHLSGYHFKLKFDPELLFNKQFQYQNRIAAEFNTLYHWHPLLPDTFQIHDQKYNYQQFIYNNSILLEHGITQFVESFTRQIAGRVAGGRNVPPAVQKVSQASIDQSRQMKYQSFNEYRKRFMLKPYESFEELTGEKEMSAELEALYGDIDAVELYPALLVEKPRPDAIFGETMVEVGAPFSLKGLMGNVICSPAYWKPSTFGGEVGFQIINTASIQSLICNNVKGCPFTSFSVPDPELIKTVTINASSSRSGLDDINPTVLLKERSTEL
Put plainly: Evaluation of COX-2 activity in vitro (recombinant enzyme, PGE2 ELISA). It counts as biochemical. Particulars: 10 μM arachidonic acid; 10-20 minutes pre-incubation; pH 8.0. How it is done: The COX-2 inhibition activity of the compounds of this invention illustrated in the Examples was determined by the following methods.
as §1, §2, §3

Molecules are shown by their SMILES. Bounds are passed on as bounds.

T1 sequence (P23219 24-599): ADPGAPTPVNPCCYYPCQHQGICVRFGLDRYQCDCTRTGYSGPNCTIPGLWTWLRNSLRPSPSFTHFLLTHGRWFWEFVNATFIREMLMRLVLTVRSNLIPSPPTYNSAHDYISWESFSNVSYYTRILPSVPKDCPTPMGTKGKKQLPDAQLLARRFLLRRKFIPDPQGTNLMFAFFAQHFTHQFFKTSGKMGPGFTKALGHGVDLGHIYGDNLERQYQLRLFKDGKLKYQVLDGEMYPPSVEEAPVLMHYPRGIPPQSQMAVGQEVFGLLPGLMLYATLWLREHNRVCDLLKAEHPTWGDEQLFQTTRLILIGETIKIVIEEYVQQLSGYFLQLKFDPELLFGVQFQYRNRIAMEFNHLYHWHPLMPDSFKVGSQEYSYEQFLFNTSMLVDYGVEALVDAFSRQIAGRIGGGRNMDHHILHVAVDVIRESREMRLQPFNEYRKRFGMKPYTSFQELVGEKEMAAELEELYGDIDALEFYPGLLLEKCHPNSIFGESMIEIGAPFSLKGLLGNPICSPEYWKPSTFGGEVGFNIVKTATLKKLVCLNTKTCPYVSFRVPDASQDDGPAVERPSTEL

`COc1ccc2c(c1F)CSc1c(C(F)(F)F)nn(-c3ccc(S(N)(=O)=O)cc3)c1-2` [Example 1, 4-[6-fluoro-1,5-dihydro-7-methoxy-3-(trifluoromethyl)-[2]benzothiopyrano[4,3-c]pyrazol-1-yl]benzenesulfonamide]: the “ANALGESIA % Inhibition” value in assay [1] was determined as 35%. Further, the “RAT PAW EDEMA % Inhibition” value in assay [2] amounted to 43%. In general, IC50 refers to the midpoint of a concentration-inhibition curve. In the case of `NS(=O)(=O)c1ccc(-n2nc(C(F)(F)F)c3c2-c2ccccc2OC3)cc1` [Example 3, 4-[1,4-dihydro-3-(trifluoromethyl)-[1]benzopyrano[4,3-c]pyrazol-1-yl]benzenesulfonamide], the IC50 in assay [3] came to 7100 nM. The same measure, in the same setting: then `NS(=O)(=O)c1ccc(-n2nc(C(F)(F)F)c3c2-c2ccccc2SC3)cc1` [Example 7, 4-[1,4-dihydro-3-(trifluoromethyl)-[1]benzothiopyrano[4,3-c]pyrazol-1-yl]benzenesulfonamide], with 9700 nM; and `NS(=O)(=O)c1ccc(-n2nc(C(F)(F)F)c3c2-c2ccccc2CS3)cc1` [Example 16, 4-[1,5-dihydro-3-(trifluoromethyl)-[2]benzothiopyrano[4 3-c]pyrazol-1-yl]benzenesulfonamide], with 400 nM. As for `NS(=O)(=O)c1ccc(-n2nc(C(F)(F)F)c3c2-c2cc(Cl)sc2CS3)cc1` [Example 21, 4-[7-chloro-1,5-dihydro-3-trifluoromethylthieno[3',2':4,5]thiopyrano[3,2-c]pyrazol-1-yl]benzenesulfonamide], the “ANALGESIA % Inhibition” value in assay [1] turned out to be 14%. Take `Cc1ccc2c(c1)CSc1c(C(F)F)nn(-c3ccc(S(N)(=O)=O)cc3)c1-2` [Example 24, 4-[3-(difluoromethyl)-1,5-Dihydro-7-methyl-[2]benzothiopyrano[4,3-c]pyrazol-1-yl]benzenesulfonamide]: the IC50 in assay [4] was under 100 nM; in assay [3], 1200 nM. For `NS(=O)(=O)c1ccc(-n2nc(C(F)F)c3c2-c2ccc(Cl)cc2CS3)cc1` [Example 25, 4-[7-chloro-3-(difluoromethyl)-1,5-dihydro-[2]benzothiopyrano[4,3-c]pyrazol-1-yl]benzenesulfonamide] the same measures were under 100 nM and 1500 nM. Consider `COc1ccc2c(c1)COc1c(C(F)(F)F)nn(-c3ccc(S(N)(=O)=O)cc3)c1-2` [Example 26, 4-[1,5-dihydro-7-methoxy-3-(trifluoromethyl)-[2]benzopyrano[4,3-c]pyrazol-1-yl]benzenesulfonamide], for which the IC50 in assay [4] is under 100 nM; in assay [3], 200 nM.

Turning to `COc1cc2c(c(OC)c1OC)-c1c(c(C(F)(F)F)nn1-c1ccc(S(N)(=O)=O)cc1)OC2` [Example 27, 4-[1,5-dihydro-7.8,9-trimethoxy-3-(trifluoromethyl)-[2]benzopyrano[4,3-c]pyrazol-1-yl]benzenesulfonamide], the IC50 in assay [4] was 59900 nM; in assay [3], over 100000 nM. Regarding `Cc1ccc2c(c1)COc1c(C(F)(F)F)nn(-c3ccc(S(N)(=O)=O)cc3)c1-2` [Example 28, 4-[1,5-dihydro-7-methyl-3-(trifluoromethyl)-[2]benzopyrano[4,3-c]pyrazol-1-yl]benzenesulfonamide], the IC50 in assay [4] was under 100 nM; in assay [3] it was over 100000 nM.

On to `COc1c(F)cc2c(c1F)CSc1c(C(F)(F)F)nn(-c3ccc(S(N)(=O)=O)cc3)c1-2` [Example 29, 4-[6,8-difluoro-1,5-dihydro-7-methoxy-3-(trifluoromethyl)[2]benzothiopyrano[4,3-c]pyrazol-1-yl]benzenesulfonamide], for which the IC50 in assay [4] was 300 nM; in assay [3], over 100000 nM. For `Cc1ccc2c(c1)COc1c(C(F)F)nn(-c3ccc(S(N)(=O)=O)cc3)c1-2` [Example 30, 4-[3-(difluoromethyl)-1,5-dihydro-7-methyl[2]benzopyrano[4,3-c]pyrazol-1-yl]benzenesulfonamide] the same measures were under 100 nM and 10700 nM. For `NS(=O)(=O)c1ccc(-n2nc(C(F)F)c3c2-c2ccc(F)cc2CS3)cc1` [Example 31, 4-[3-(difluoromethyl)-1,5-dihydro-7-fluoro-[2]benzothiopyrano[4,3-c]pyrazol-1-yl]benzenesulfonamide] the same measures were under 100 nM and 200 nM. Turning to `CS(=O)(=O)c1ccc(-n2nc(C(F)(F)F)c3c2-c2ccc(F)cc2CS3)cc1` [Example 32, 1,5-dihydro-7-fluoro-1-[(4-methylsulfonyl)phenyl]-3-(trifluoromethyl)-[2]benzothiopyrano[4,3,c]pyrazole], the IC50 was 200 nM in assay [4] and 8900 nM in assay [3].

With `NS(=O)(=O)c1ccc(-n2nc(C(F)(F)F)c3c2-c2ccc4c(c2CS3)OCO4)cc1` [Example 33], the IC50 in assay [4] and in assay [3] was under 100 nM each time. Regarding `CN(C)C=NS(=O)(=O)c1ccc(-n2nc(C#N)c3c2-c2ccc(F)cc2CS3)cc1` [Example 34, 4-(3-cyano-1,5-dihydro-7-fluoro-[2]benzothiopyrano[4,3-c]pyrazol-1-yl) -N-[(dimethylamino)methylene]-benzenesulfonamide], the IC50 is 4200 nM in assay [4] and over 100000 nM in assay [3]. The corresponding values for `N#Cc1nn(-c2ccc(S(N)(=O)=O)cc2)c2c1SCc1cc(F)ccc1-2` [Example 35] are 100 nM and 800 nM. Regarding `NS(=O)(=O)c1ccc(-n2nc(CO)c3c2-c2ccc(F)cc2CS3)cc1` [Example 36], the IC50 in assay [4] came to 1700 nM; in assay [3] it was 6700 nM.
